In US7772180B2, “Hepatitis C virus inhibitors” (Bristol-Myers Squibb Company, priority 2006, dated 2010):
Like-named read-outs stand apart in the source and are kept apart here.

What was measured:
[1] = biological target: T1, HCV NS3/4A protease complex, BMS strain (UniProt P27958, species not given/STRAIN_BMS); assay: FRET peptide assay to monitor HCV NS3/4A proteolytic activity (BMS strain); assay type: biochemical, Hepatitis C virus (genotype 1a)
T1 construct: other: NS3/4A BMS strain; activity range class; numeric values, unit not given; said of H77 and J4L6S; fused on or other part: A three-lysine solubilising tail at the C-terminus of NS4A; A His tag is implied by the pET21b vector and Ni-NTA purification; Both are printed for the H77 and J4L6S constructs and apply to BMS by inference
T1 sequence (P27958 1027-1657, change not shown, one chain of several): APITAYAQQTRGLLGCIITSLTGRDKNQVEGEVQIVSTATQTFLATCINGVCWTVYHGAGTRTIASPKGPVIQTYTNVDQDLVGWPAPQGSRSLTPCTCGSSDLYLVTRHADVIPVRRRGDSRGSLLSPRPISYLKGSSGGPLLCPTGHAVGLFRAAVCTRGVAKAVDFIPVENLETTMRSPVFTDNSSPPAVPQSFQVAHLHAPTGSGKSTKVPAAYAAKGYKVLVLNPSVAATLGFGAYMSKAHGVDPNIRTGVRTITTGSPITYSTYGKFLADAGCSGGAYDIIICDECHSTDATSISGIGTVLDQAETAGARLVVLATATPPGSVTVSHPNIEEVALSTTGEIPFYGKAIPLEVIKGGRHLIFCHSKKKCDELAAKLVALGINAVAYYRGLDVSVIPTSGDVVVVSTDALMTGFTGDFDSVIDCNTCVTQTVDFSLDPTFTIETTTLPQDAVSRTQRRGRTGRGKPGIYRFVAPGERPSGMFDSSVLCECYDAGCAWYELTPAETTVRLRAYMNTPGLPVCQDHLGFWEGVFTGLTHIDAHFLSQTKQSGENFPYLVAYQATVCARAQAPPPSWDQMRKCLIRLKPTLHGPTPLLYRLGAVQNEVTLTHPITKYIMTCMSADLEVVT
Description: HCV NS3 protease complexes, derived from the BMS strain, H77 strain or J4L6S strain, were generated, as described below. These purified recombinant proteins were generated for use in a homogeneous assay (see below) to provide an indication of how effective compounds of the present disclosure would be in inhibiting HCV NS3 proteolytic activity.
Serum from an HCV-infected patient was obtained from Dr. T. Wright, San Francisco Hospital. An engineered full-length cDNA (compliment deoxyribonucleic acid) template of the HCV genome (BMS strain) was constructed from DNA fragments obtained by reverse transcription-PCR (RT-PCR) of serum RNA (ribonucleic acid) and using primers selected on the basis of homology between other genotype 1a strains. From the determination of the entire genome sequence, a genotype 1a was assigned to the HCV isolate according to the classification of Simmonds et al. (See P Simmonds, K A Rose, S Graham, S W Chan, F McOmish, B C Dow, E A Follett, P L Yap and H Marsden, J. Clin. Microbiol., 31(6), 1493-1503 (1993)). […] The infectious clones, H77 (1a genotype) and J4L6S (1b genotype) were obtained from R. Purcell (NIH) and the sequences are published in Genbank (AAB67036, see Yanagi, M., Purcell, R. H., Emerson, S. U. and Bukh, J. Proc. Natl. Acad. Sci. U.S.A. 94(16), 8738-8743 (1997); AF054247, see Yanagi, M., St Claire, M., Shapiro, M., Emerson, S. U., Purcell, R. H. and Bukh, J. Virology 244 (1), 161-172. (1998)).
NS3/4A protease complex-containing fractions were pooled and loaded on a desalting column Superdex-S200 pre-equilibrated with buffer D (25 mM HEPES, pH 7.5, 20% glycerol, 300 mM NaCl, 0.2% Triton X-100, 10 mM βME). Sample was loaded at a flow rate of 1 mL/min. NS3/4A protease complex-containing fractions were pooled and concentrated to approximately 0.5 mg/ml. The purity of the NS3/4A protease complexes, derived from the BMS, H77 and J4L6S strains, were judged to be greater than 90% by SDS-PAGE and mass spectrometry analyses. The enzyme was stored at −80° C., thawed on ice and diluted prior to use in assay buffer.
The purpose of this in vitro assay was to measure the inhibition of HCV NS3 protease complexes, derived from the BMS strain, H77 strain or J4L6S strain, as described above, by compounds of the present disclosure. This assay provides an indication of how effective compounds of the present disclosure would be in inhibiting HCV NS3 proteolytic activity.
In order to monitor HCV NS3/4A protease activity, an NS3/4A peptide substrate was used. The substrate was RET S1 (Resonance Energy Transfer Depsipeptide Substrate; AnaSpec, Inc. cat #22991) (FRET peptide), described by Taliani et al. in Anal. Biochem. 240(2):60-67 (1996). The sequence of this peptide is loosely based on the NS4A/NS4B natural cleavage site for the HCV NS3 protease except there is an ester linkage rather than an amide bond at the cleavage site. The peptide also contains a fluorescence donor, EDANS, near one end of the peptide and an acceptor, DABCYL, near the other end. The fluorescence of the peptide is quenched by […] resonance energy transfer (RET) between the donor and the acceptor, but as the NS3 protease cleaves the peptide the products are released from RET quenching and the fluorescence of the donor becomes apparent.
The peptide substrate was incubated with one of the three recombinant NS3/4A protease complexes, in the absence or presence of a compound of the present disclosure. The inhibitory effects of a compound were determined by monitoring the formation of fluorescent reaction product in real time using a Cytofluor Series 4000.
Assay buffer: 50 mM HEPES, pH 7.5; 0.15 M NaCl; 0.1% Triton; 15% Glycerol; 10 mM βME. Substrate: 2 μM final concentration (from a 2 mM stock solution in DMSO stored at −20° C.). HCV NS3/4A protease type 1a (1b), 2-3 nM final concentration (from a 5 μM stock solution in 25 mM HEPES, pH 7.5, 20% glycerol, 300 mM NaCl, 0.2% Triton-X100, 10 mM βME). […]

[2] = system: HCV replicon (strain 1b) in HUH-7 cells; assay: HCV replicon FRET assay; assay type: cell-based, Hepatitis C virus
Description: An HCV replicon whole cell system was established as described by Lohmann V, Korner F, Koch J, Herian U, Theilmann L, Bartenschlager R., Science 285(5424): 110-3 (1999). This system enabled us to evaluate the effects of our HCV Protease compounds on HCV RNA replication. Briefly, using the HCV strain 1b sequence described in the Lohmann paper (Assession number: AJ238799), an HCV cDNA was synthesized by Operon Technologies, Inc. (Alameda, Calif.), and the full-length replicon was then assembled in plasmid pGem9zf(+) (Promega, Madison, Wis.) using standard molecular biology techniques. The replicon consists of (i) the HCV 5′ UTR fused to the first 12 amino acids of the capsid protein, (ii) the neomycin phosphotransferase gene (neo), (iii) the IRES from encephalomyocarditis virus (EMCV), and (iv) HCV NS3 to NS5B genes and the HCV 3′ UTR. Plasmid DNAs were linearized with ScaI and RNA transcripts were synthesized in vitro using the T7 MegaScript transcription kit (Ambion, Austin, Tex.) according to manufacturer's directions. In vitro transcripts of the cDNA were transfected into the human hepatoma cell line, HUH-7. […] Resulting cell lines were characterized for positive and negative strand RNA production and protein production over time.
The HCV replicon FRET assay was developed to monitor the inhibitory effects of compounds described in the disclosure on HCV viral replication. HUH-7 cells, constitutively expressing the HCV replicon, were grown in Dulbecco's Modified Eagle Media (DMEM) (Gibco-BRL) containing 10% Fetal calf serum (FCS) (Sigma) and 1 mg/ml G418 (Gibco-BRL). Cells were seeded the night before (1.5×10^4 cells/well) in 96-well tissue-culture sterile plates. Compound and no compound controls were prepared in DMEM containing 4% FCS, 1:100 Penicillin/Streptomysin (Gibco-BRL), 1:100 L-glutamine and 5% DMSO in the dilution plate (0.5% DMSO final concentration in the assay). Compound/DMSO mixes were added to the cells and incubated for 4 days at 37° C. After 4 days, cells were first assessed for cytotoxicity using alamar Blue (Trek Diagnotstic Systems) for a CC50 reading. The toxicity of compound (CC50) was determined by adding 1/10th volume of alamarBlue to the media incubating the cells. After 4 hours, the fluorescence signal from each well was read, with an excitation wavelength at 530 nm and an emission wavelength of 580 nm, using the Cytofluor Series 4000 (Perspective Biosystems). Plates were then rinsed thoroughly with Phosphate-Buffered Saline (PBS) (3 times 150 μl).

[3] = read-out: HCV Protease (IC50); NS3/4A BMS strain; activity range class
[4] = Hepatitis C virus, Huh-7, read-out: HCV Pro Replicon (EC50), HCV replicon cell assay, activity range class
[5] = read-out: HCV Protease (IC50); NS3/4A BMS strain; numeric values, unit inferred
[6] = Hepatitis C virus, Huh-7, read-out: HCV Pro Replicon (EC50), HCV replicon cell assay, numeric values, unit inferred
[7] = read-out: HCV Pro Replicon (EC50), HCV replicon cell assay, activity range class

C=C[C@@H]1C[C@]1(NC(=O)[C@@H]1C[C@@H](Oc2nccc3cc(OC)ccc23)CN1C(=O)C(Nc1cc(C)cc(C)n1)C(C)C)C(=O)NS(=O)(=O)N(C)C (single isomer, unassigned) [Compound 16]
IC50 [1, 3]: 0.6 to 20 nM
EC50 [2, 4]: 3 to 100 nM

C=C[C@@H]1C[C@]1(NC(=O)[C@@H]1C[C@@H](Oc2nc(N(C)C)cc3cc(OC)ccc23)CN1C(=O)C(Nc1ccccc1)C(C)(C)C)C(=O)NS(=O)(=O)C1CC1 (single isomer, unassigned) [Compound 19B]
IC50 [1, 5]: 1000 nM
EC50 [2, 6]: 1850 nM

C=C[C@@H]1C[C@]1(NC(=O)[C@@H]1C[C@@H](Oc2ncc(OC)c3ccc(Cl)cc23)CN1C(=O)C(Nc1cncnc1)C(C)C)C(=O)NS(=O)(=O)C1CC1 (single isomer, unassigned) [Compound 24A]
IC50 [1, 5]: 26 nM
EC50 [2, 6]: 593 nM

C=C[C@@H]1C[C@]1(NC(=O)[C@@H]1C[C@@H](Oc2ncc(OC)c3ccc(Cl)cc23)CN1C(=O)C(Nc1ccc(C)nc1)C(C)(C)C)C(=O)NS(=O)(=O)C1CC1 (single isomer, unassigned) [Compound 26B]
IC50 [1, 5]: 1300 nM
EC50 [2, 6]: 3190 nM

C=C[C@@H]1C[C@]1(NC(=O)[C@@H]1C[C@@H](Oc2ncc(OC)c3ccc(Cl)cc23)CN1C(=O)C(Nc1cncc(C(F)(F)F)c1)C(C)(C)C)C(=O)NS(=O)(=O)C1CC1 (single isomer, unassigned) [Compound 27A]
IC50 [1, 5]: 3 nM
EC50 [2, 6]: 4.09 nM

C=C[C@@H]1C[C@]1(NC(=O)[C@@H]1C[C@@H](Oc2ncc(OC)c3ccc(Cl)cc23)CN1C(=O)C(Nc1cc(C)nc(C)c1)C(C)(C)C)C(=O)NS(=O)(=O)C1CC1 (single isomer, unassigned) [Compound 29A]
IC50 [1, 3]: 0.6 to 20 nM
EC50 [2, 4]: 100 to 1000 nM

C=C[C@@H]1C[C@]1(NC(=O)[C@@H]1C[C@@H](Oc2ncc(OC)c3ccc(Cl)cc23)CN1C(=O)C(Nc1cc(C)nc(C)c1)C(C)(C)C)C(=O)NS(=O)(=O)C1CC1 (single isomer, unassigned) [Compound 29B]
IC50 [1, 5]: 249 nM
EC50 [2, 6]: 14900 nM

C=C[C@@H]1C[C@]1(NC(=O)[C@@H]1C[C@@H](Oc2ncc(OC)c3ccc(Cl)cc23)CN1C(=O)C(Nc1cc(Cl)cc(Cl)n1)C(C)(C)C)C(=O)NS(=O)(=O)C1CC1 (single isomer, unassigned) [Compound 32A]
IC50 [1, 5]: 1 nM
EC50 [2, 6]: 3.59 nM

C=C[C@@H]1C[C@]1(NC(=O)[C@@H]1C[C@@H](Oc2ncc(OC)c3ccc(Cl)cc23)CN1C(=O)C(Nc1cc(Cl)cc(Cl)n1)C(C)(C)C)C(=O)NS(=O)(=O)C1CC1 (single isomer, unassigned) [Compound 32B]
IC50 [1, 3]: > 200 nM
EC50 [2, 4]: > 1000 nM

C=C[C@@H]1C[C@]1(NC(=O)[C@@H]1C[C@@H](Oc2nc(N(C)C)cc3c(OC)cccc23)CN1C(=O)C(Nc1cccc(C)n1)C(C)(C)C)C(=O)NS(=O)(=O)C1CC1 (single isomer, unassigned) [Compound 38A]
IC50 [1, 3]: 0.6 to 20 nM
EC50 [2, 4]: 3 to 100 nM

C=C[C@@H]1C[C@]1(NC(=O)[C@@H]1C[C@@H](Oc2nc(N(C)C)cc3c(OC)cccc23)CN1C(=O)C(Nc1cccc(C)n1)C(C)(C)C)C(=O)NS(=O)(=O)C1CC1 (single isomer, unassigned) [Compound 38B]
IC50 [1, 5]: 5000 nM
EC50 [2, 6]: 7710 nM

C=C[C@@H]1C[C@]1(NC(=O)[C@@H]1C[C@@H](Oc2ncc(OC)c3ccc(Cl)cc23)CN1C(=O)C(Nc1cccc(OC)c1)C(C)(C)C)C(=O)NS(=O)(=O)C1CC1 (single isomer, unassigned) [Compound 201A]
IC50 [1, 5]: 4 nM
EC50 [2, 6]: 4.23 nM

C=C[C@@H]1C[C@]1(NC(=O)[C@@H]1C[C@@H](Oc2ncc(OC)c3ccc(Cl)cc23)CN1C(=O)C(Nc1cccc(OC)c1)C(C)(C)C)C(=O)NS(=O)(=O)C1CC1 (single isomer, unassigned) [Compound 201B]
IC50 [1, 3]: 20 to 200 nM
EC50 [2, 4]: 3 to 100 nM

C=CC1CC1(NC(=O)C1CC(Oc2ncc(OC)c3ccc(Cl)cc23)CN1C(=O)C(Nc1ccccc1)C(C)(C)C)C(=O)NS(=O)(=O)C1CC1 (single isomer, unassigned; isomer 3) [213 first isomer]
IC50 [1, 3]: > 200 nM
EC50 [2, 7]: 100 to 1000 nM

C=CC1CC1(NC(=O)C1CC(Oc2ncc(OC)c3ccc(Cl)cc23)CN1C(=O)C(Nc1ccccc1)C(C)(C)C)C(=O)NS(=O)(=O)C1CC1 (single isomer, unassigned; isomer 3) [213 second isomer]
IC50 [1, 3]: 0.6 to 20 nM
EC50 [2, 7]: 3 to 100 nM

C=C[C@@H]1C[C@]1(NC(=O)[C@@H]1C[C@@H](Oc2ncc(OC)c3ccc(Cl)cc23)CN1C(=O)[C@@H](Nc1cccc(C(=O)NC(C)(C)c2ccccc2)c1)C(C)(C)C)C(=O)NS(=O)(=O)C1CC1 (single isomer, unassigned; isomer 3) [216 first isomer]
IC50 ([1]; NS3/4A BMS strain; activity range class; read-out: HCV Protease (IC50)): 0.6 to 20 nM
EC50 ([2]; HCV replicon cell assay, activity range class, read-out: HCV Pro Replicon (EC50)): 3 to 100 nM
